Earlier results on 1 molecule are cited in patent US20050113418A1, “Administration of pharmaceuticals” (priority 1996, published 2005).

For this series the following is noted: Lind et al, Gut 1983.

For `COc1ccc2[nH]c([S+]([O-])Cc3ncc(C)c(OC)c3C)nc2c1` (stereo not shown) [Omeprazole, omeprazole], the plasma half-life is 30 to 60 min.
